Assay results: patent US20190249218A1, “Method, Medium and Kit for Detecting Multiple Aminoglycoside Resistance Including 16S rRNA Methylase Mediated Resistance in Gram-Negative Bacteria” (priority 2016, published 2019)
In brackets after ≈: the same amount, converted by molar mass. Where two headings read alike, the source gives them in different places.

Test system: E. coli
Experiment: MIC by broth microdilution
Assay type: cell-based, Escherichia coli
Details: for MIC: Escherichia coli, read-out: MIC
Protocol: MICs of amikacin and gentamicin were determined using the broth microdilution method in cation-adjusted Mueller-Hinton broth, as recommended by the Clinical Laboratory Standard Institute (CLSI) guidelines (8). Amikacin and gentamicin sulfate (Fluorochem, Dertbyshire, UK) were tested over a range of dilutions from 0.25 to 256 μg/ml. A final inoculum of 5.10^5 CFU/ml of each strain was distributed in the 96 wells tray (Sarstedt, Ntimbrecht, Germany). All experiments were repeated in triplicate and E. coli ATCC 25922 was used as quality control. According to the CLSI breakpoints (9), Enterobacteriaceae isolates with gentamicin MICs≤4 and amikacin MICs≤16 mg/L were categorized as susceptible, while those with gentamicin MICs≥16 and amikacin MICs≥64 mg/L were categorized as resistant.
MICs of amikacin and gentamicin were determined as described above in Example 1.

[1] = isolate 92/31, E. coli, AAC(3)-IV
[2] = isolate 390, E. coli, AAC(3)-IV
[3] = isolate 1054 (first entry), E. coli, AAC(6′)-I
[4] = isolate 1054 (second entry), E. coli, AAC(6′)-I
[5] = isolate 1488, E. coli, AAC(6′)-II
[6] = isolate 4000, E. coli, APH(3′)-I + AAC(3)-V
[7] = isolate 22089, E. coli, AAC(3)-I + AAC(3)-V
[8] = isolate 122971, E. coli, ANT(2″)
[9] = isolate R1436, E. coli, AG susceptible
[10] = isolate R1438, E. coli, AG susceptible
[11] = isolate R4100, E. coli TOP10, npmA
[12] = isolate RP4, E. coli, APH(3′)-Ib
[13] = isolate pFCT1163, E. coli, AAC(6′)-Ia

NCC[C@H](O)C(=O)N[C@@H]1C[C@H](N)[C@@H](O[C@H]2O[C@H](CN)[C@@H](O)[C@H](O)[C@H]2O)[C@H](O)[C@H]1O[C@H]1O[C@H](CO)[C@@H](O)[C@H](N)[C@H]1O [Amikacin]
MIC (ATCC25922, isolate FR136, E. coli ATCC 25922, AG susceptible): 2 µg/mL (≈ 3.42 µM)
MIC (ATCC25922, strain R2298, E. coli ATCC 25922, susceptible): 2 µg/mL (≈ 3.42 µM)
MIC (ATCC35218, isolate R2278, E. coli ATCC 35218, AG susceptible): 4 µg/mL (≈ 6.83 µM)
MIC (ATCC35218, strain R2278, E. coli ATCC 35218, susceptible): 4 µg/mL (≈ 6.83 µM)
MIC (isolate 62Carb, E. coli, rmtB): > 256 µg/mL
MIC [1]: 4 µg/mL (≈ 6.83 µM)
MIC (isolate 97, E. coli, AAC(3)-IV): 2 µg/mL (≈ 3.42 µM)
MIC [2]: 16 µg/mL (≈ 27.3 µM)
MIC [3]: 8 µg/mL (≈ 13.7 µM)
MIC [4]: 16 µg/mL (≈ 27.3 µM)
MIC [5]: 4 µg/mL (≈ 6.83 µM)
MIC [6]: 4 µg/mL
MIC [7]: 16 µg/mL
MIC [8]: 4 µg/mL (≈ 6.83 µM)
MIC (isolate E28, E. coli, rmtB): > 256 µg/mL
MIC (isolate R107, E. coli, rmtB): > 256 µg/mL
MIC (isolate R1012, E. coli, armA): > 256 µg/mL
MIC [9]: 2 µg/mL (≈ 3.42 µM)
MIC [10]: 2 µg/mL (≈ 3.42 µM)
MIC [11]: 128 µg/mL (≈ 219 µM)
MIC [12]: 1 µg/mL (≈ 1.71 µM)
MIC [13]: 128 µg/mL (≈ 219 µM)
MIC (isolate pFCT4392, E. coli, AAC(3)-Ia): 1 µg/mL (≈ 1.71 µM)
MIC (isolate pWP701, E. coli, AAC(3)-IV): 1 µg/mL (≈ 1.71 µM)
MIC (strain 62Carb, E. coli, rmtB): > 512 µg/mL
MIC (strain 92/31, E. coli, AAC(3)-IV): 4 µg/mL (≈ 6.83 µM)
MIC (strain 97, E. coli, AAC(3)-IV): 2 µg/mL (≈ 3.42 µM)
MIC (strain 390, E. coli, AAC(3)-IV): 16 µg/mL (≈ 27.3 µM)
MIC (strain 1054a, E. coli, AAC(6′)-I): 8 µg/mL (≈ 13.7 µM)
MIC (strain 1054b, E. coli, AAC(6′)-I): 16 µg/mL (≈ 27.3 µM)
MIC (strain 1488, E. coli, AAC(6′)-II): 4 µg/mL (≈ 6.83 µM)
MIC (strain 4000, E. coli, APH(3′)-I + AAC(3)-V): 4 µg/mL
MIC (strain 22089, E. coli, AAC(3)-I + AAC(3)-V): 16 µg/mL
MIC (strain 122971, E. coli, ANT(2″)): 4 µg/mL (≈ 6.83 µM)
MIC (strain E28, E. coli, rmtB): > 512 µg/mL
MIC (strain R107, E. coli, rmtB): > 512 µg/mL
MIC (strain R1012, E. coli, armA): > 512 µg/mL
MIC (strain R1436, E. coli, susceptible): 2 µg/mL (≈ 3.42 µM)
MIC (strain R1438, E. coli, susceptible): 2 µg/mL (≈ 3.42 µM)
MIC (strain R4100, E. coli, npmA): 258 µg/mL (≈ 441 µM)
MIC (strain RP4, E. coli, APH(3′)-Ib): 1 µg/mL (≈ 1.71 µM)
MIC (strain pFCT1163, E. coli, AAC(6′)-Ia): 128 µg/mL (≈ 219 µM)
MIC (strain pFCT4392, E. coli, AAC(3)-Ia): 1 µg/mL (≈ 1.71 µM)
MIC (strain pWP701, E. coli, AAC(3)-IV): 1 µg/mL (≈ 1.71 µM)
Amikacin Phenotype (isolate 62Carb, E. coli, rmtB): R (amikacin MICs≥64 mg/L were categorized as resistant)
Amikacin Phenotype [1]: S (amikacin MICs≤16 mg/L were categorized as susceptible)
Amikacin Phenotype (isolate 97, E. coli, AAC(3)-IV): S (amikacin MICs≤16 mg/L were categorized as susceptible)
Amikacin Phenotype [2]: S (amikacin MICs≤16 mg/L were categorized as susceptible)
Amikacin Phenotype [3]: S (amikacin MICs≤16 mg/L were categorized as susceptible)
Amikacin Phenotype [4]: S (amikacin MICs≤16 mg/L were categorized as susceptible)
Amikacin Phenotype [5]: S (amikacin MICs≤16 mg/L were categorized as susceptible)
Amikacin Phenotype [6]: S (amikacin MICs≤16 mg/L were categorized as susceptible)
Amikacin Phenotype [7]: S (amikacin MICs≤16 mg/L were categorized as susceptible)
Amikacin Phenotype [8]: S (amikacin MICs≤16 mg/L were categorized as susceptible)
Amikacin Phenotype (isolate E28, E. coli, rmtB): R (amikacin MICs≥64 mg/L were categorized as resistant)
Amikacin Phenotype (isolate FR136, E. coli ATCC 25922, AG susceptible): S (amikacin MICs≤16 mg/L were categorized as susceptible)
Amikacin Phenotype (isolate R107, E. coli, rmtB): R (amikacin MICs≥64 mg/L were categorized as resistant)
Amikacin Phenotype (isolate R262, E. coli, rmtC): R (amikacin MICs≥64 mg/L were categorized as resistant)
Amikacin Phenotype (isolate R451, E. coli, rmtC): R (amikacin MICs≥64 mg/L were categorized as resistant)
Amikacin Phenotype (isolate R989, E. coli, armA): R (amikacin MICs≥64 mg/L were categorized as resistant)
Amikacin Phenotype (isolate R990, E. coli, rmtB): R (amikacin MICs≥64 mg/L were categorized as resistant)
Amikacin Phenotype (isolate R1012, E. coli, armA): R (amikacin MICs≥64 mg/L were categorized as resistant)
Amikacin Phenotype [9]: S (amikacin MICs≤16 mg/L were categorized as susceptible)
Amikacin Phenotype [10]: S (amikacin MICs≤16 mg/L were categorized as susceptible)
Amikacin Phenotype (isolate R2278, E. coli ATCC 35218, AG susceptible): S (amikacin MICs≤16 mg/L were categorized as susceptible)
Amikacin Phenotype [11]: R (amikacin MICs≥64 mg/L were categorized as resistant)
Amikacin Phenotype [12]: S (amikacin MICs≤16 mg/L were categorized as susceptible)
Amikacin Phenotype [13]: R (amikacin MICs≥64 mg/L were categorized as resistant)
